In ChEMBL document CHEMBL4177562, “Synthetic ligand promotes gene expression by affecting GC sequence in promoter” (2017):
Activity calls are given as the source filed them. The calls are words filed in the database; no cut-off is given here.

Legend:
HeLa [1] = assay: Downregulation of primary cilium-related genes (GO:0072372) in human HeLa cells measured at 12 hrs; assay type: functional
HeLa [2] = assay: Downregulation of extracellular exosome-related genes (GO:0070062) in human HeLa cells measured at 24 hrs; assay type: functional
HeLa [3] = assay: Downregulation of COQ9 mRNA expression in human HeLa cells at 0.1 uM after 24 hrs by RT-qPCR analysis; assay type: functional, cell-based
HeLa [4] = assay: Downregulation of mitochondrial matrix-related genes (GO:0005759) in human HeLa cells measured at 12 hrs; assay type: functional
HeLa [5] = assay: Downregulation of apical plasma membrane-related genes (GO:0016324) in human HeLa cells measured at 12 to 24 hrs; assay type: functional
HeLa [6] = assay: Upregulation of nucleus-related genes (GO:0005634) in human HeLa cells measured at 12 hrs; assay type: functional
HeLa [7] = assay: Upregulation of IFIT2 mRNA expression in human HeLa cells at 0.1 uM after 24 hrs by RT-qPCR analysis; assay type: functional, cell-based
HeLa [8] = assay: Downregulation of peroxisome-related genes (GO:0005777) in human HeLa cells measured at 12 hrs; assay type: functional
HeLa [9] = assay: Downregulation of proteinaceous extracellular matrix-related genes (GO:0005578) in human HeLa cells measured at 24 hrs; assay type: functional
[10] = Binding affinity to TTTT of 5'-Biotinylated-dCAG CGT GTG GTT TTT TTTTTT ACC ACA CGC TG-3' (unknown origin) at 1.25 to 20 nM after 30 secs by SPR analysis
HeLa [11] = assay: Upregulation of positive regulation of cytokinesis-related genes (GO:0032467) in human HeLa cells measured at 12 to 24 hrs; assay type: functional
HeLa [12] = assay: Upregulation of spindle midzone-related genes (GO:0051233) in human HeLa cells measured at 12 to 24 hrs; assay type: functional
HeLa [13] = assay: Downregulation of extracellular region-related genes (GO:0005576) in human HeLa cells measured at 24 hrs; assay type: functional
HeLa [14] = assay: Downregulation of CERS5 mRNA expression in human HeLa cells at 0.1 uM after 24 hrs by RT-qPCR analysis; assay type: functional, cell-based
[15] = Binding affinity to TCTT of 5'-Biotinylated-dCAG CGT GTG GTT TTT CTTTTT ACC ACA CGC TG-3' (unknown origin) at 1.25 to 20 nM after 30 secs by SPR analysis
[16] = Binding affinity to GGGG of 5'-Biotinylated-dCAG CGT GTG GTT TTG GGGTTT ACC ACA CGC TG-3' (unknown origin) after 30 secs by SPR analysis
HeLa [17] = assay: Upregulation of cytoplasm-related genes (GO:0005737) in human HeLa cells measured at 12 to 24 hrs; assay type: functional
HeLa [18] = assay: Downregulation of skin development-related genes (GO:0043588) in human HeLa cells measured at 12 to 24 hrs; assay type: functional
HeLa [19] = assay: Downregulation of serine C-palmitoyltransferase complex-related genes (GO:0017059) in human HeLa cells measured at 12 hrs; assay type: functional
HeLa [20] = assay: Upregulation of SULT4A1 mRNA expression in human HeLa cells at 0.1 uM after 24 hrs by RT-qPCR analysis; assay type: functional, cell-based
HeLa [21] = assay: Upregulation of nucleoplasm-related genes (GO:0005654) in human HeLa cells measured at 12 hrs; assay type: functional
[22] = Binding affinity to TGGC of 5'-Biotinylated-dCAG CGT GTG GTT TTT GGCTTT ACC ACA CGC TG-3' (unknown origin) after 30 secs by SPR analysis
[23] = Binding affinity to GGGC of 5'-Biotinylated-dCAG CGT GTG GTT TTG GGCTTT ACC ACA CGC TG-3' (unknown origin) after 30 secs by SPR analysis
HeLa [24] = assay: Downregulation of ciliary tip-related genes (GO:0097542) in human HeLa cells measured at 12 hrs; assay type: functional
[25] = Binding affinity to CGGT of 5'-Biotinylated-dCAG CGT GTG GTT TTC GGTTTT ACC ACA CGC TG-3' (unknown origin) after 30 secs by SPR analysis
[26] = Binding affinity to GCGG of 5'-Biotinylated-dCAG CGT GTG GTT TTG CGGTTT ACC ACA CGC TG-3' (unknown origin) after 30 secs by SPR analysis
HeLa [27] = assay: Upregulation of spindle midzone-related genes (GO:0051233) in human HeLa cells measured at 24 hrs; assay type: functional
[28] = Binding affinity to TTTA of 5'-Biotinylated-dCAG CGT GTG GTT TTT TTATTT ACC ACA CGC TG-3' (unknown origin) at 1.25 to 20 nM after 30 secs by SPR analysis
HeLa [29] = assay: Upregulation of cytoplasm-related genes (GO:0005737) in human HeLa cells measured at 12 hrs; assay type: functional
HeLa [30] = assay: Upregulation of cytoplasm-related genes (GO:0005737) in human HeLa cells measured at 24 hrs; assay type: functional
[31] = Binding affinity to GCGG of 5'-Biotinylated-dCAG CGT GTG GTT TTG C(Me)GGTTT ACC ACA CGC TG-3' (unknown origin) at 1.25 to 20 nM after 30 secs by SPR analysis
HeLa [32] = assay: Upregulation of NBPF10 mRNA expression in human HeLa cells at 0.1 uM after 24 hrs by RT-qPCR analysis; assay type: functional, cell-based
HeLa [33] = assay: Upregulation of nucleolus-related genes (GO:0005730) in human HeLa cells measured at 24 hrs; assay type: functional
[34] = Binding affinity to AAAA of 5'-Biotinylated-dCAG CGT GTG GTT TTA AAATTT ACC ACA CGC TG-3' (unknown origin) at 1.25 to 20 nM after 30 secs by SPR analysis
HeLa [35] = assay: Upregulation of transcription/DNA-templated-related genes (GO:0006351) in human HeLa cells measured at 12 hrs; assay type: functional
[36] = Binding affinity to ATTT of 5'-Biotinylated-dCAG CGT GTG GTT TTA TTTTTT ACC ACA CGC TG-3' (unknown origin) at 1.25 to 20 nM after 30 secs by SPR analysis
HeLa [37] = assay: Upregulation of microtubule cytoskeleton-related genes (GO:0015630) in human HeLa cells measured at 24 hrs; assay type: functional
HeLa [38] = assay: Upregulation of OASL mRNA expression in human HeLa cells at 0.1 uM after 24 hrs by RT-qPCR analysis; assay type: functional, cell-based
HeLa [39] = assay: Downregulation of oxidation-reduction process-related genes (GO:0055114) in human HeLa cells measured at 12 to 24 hrs; assay type: functional; set-up: scale not given: the % may be the effect or the level left
HeLa [40] = assay: Downregulation of cell periphery-related genes (GO:0071944) in human HeLa cells measured at 24 hrs; assay type: functional
HeLa [41] = assay: Upregulation of GCNA mRNA expression in human HeLa cells at 0.1 uM after 24 hrs by RT-qPCR analysis; assay type: functional, cell-based
HeLa [42] = assay: Upregulation of negative regulation of inclusion body assembly-related genes (GO:0090084) in human HeLa cells measured at 12 hrs; assay type: functional
[43] = Binding affinity to CGGG of 5'-Biotinylated-dCAG CGT GTG GTT TTC GGGTTT ACC ACA CGC TG-3' (unknown origin) after 30 secs by SPR analysis
HeLa [44] = assay: Upregulation of mitotic nuclear division-related genes (GO:0007067) in human HeLa cells measured at 24 hrs; assay type: functional
HeLa [45] = assay: Downregulation of STK39 mRNA expression in human HeLa cells at 0.1 uM after 24 hrs by RT-qPCR analysis; assay type: functional, cell-based
[46] = Binding affinity to CACA of 5'-Biotinylated-dCAG CGT GTG GTT TTC ACATTT ACC ACA CGC TG-3' (unknown origin) at 1.25 to 20 nM after 30 secs by SPR analysis
HeLa [47] = assay: Downregulation of progesterone metabolic process-related genes (GO:0042448) in human HeLa cells measured at 24 hrs; assay type: functional

SMILES: Cc1ccc2ccc(NC(=O)OCCCN(CCCCCCCCN(CCCOC(=O)Nc3ccc4ccc(C)nc4n3)CCCOC(=O)Nc3ccc4ccc(C)nc4n3)CCCOC(=O)Nc3ccc4ccc(C)nc4n3)nc2n1
- Activity (HeLa [1]): 2.14%
- Activity (HeLa [2]): 24.49%
- Activity (HeLa [3]): Active
- Activity (HeLa [4]): 3.74%
- Activity (HeLa [5]): 10%
- Activity (HeLa [6]): 43.78%
- Activity (HeLa [7]): Active
- Activity (HeLa [8]): 2.14%
- Activity (HeLa [9]): 12.24%
- Activity [10]: inactive
- Activity (HeLa [11]): 5.55%
- Activity (HeLa [12]): 5.56%
- Activity (HeLa [13]): 22.45%
- Activity (HeLa [14]): Active
- Activity [15]: inactive
- Activity [16]: Dose-dependent effect
- Activity (HeLa [17]): 33.33%
- Activity (HeLa [18]): 6.67%
- Activity (HeLa [19]): 1.07%
- Activity (HeLa [20]): Active
- Activity (HeLa [21]): 26.27%
- Activity [22]: Dose-dependent effect
- Activity [23]: Dose-dependent effect
- Activity (HeLa [24]): 1.6%
- Activity [25]: Dose-dependent effect
- Activity [26]: Dose-dependent effect
- Activity (HeLa [27]): 3.08%
- Activity [28]: inactive
- Activity (HeLa [29]): 34.56%
- Activity (HeLa [30]): 33.85%
- Activity [31]: inactive
- Activity (HeLa [32]): Active
- Activity (HeLa [33]): 9.23%
- Activity [34]: inactive
- Activity (HeLa [35]): 20.28%
- Activity [36]: inactive
- Activity (HeLa [37]): 4.62%
- Activity (HeLa [38]): Active
- Activity (HeLa [39]): 16.67%
- Activity (HeLa [40]): 4.08%
- Activity (HeLa [41]): Active
- Activity (HeLa [42]): 2.3%
- Activity [43]: Dose-dependent effect
- Activity (HeLa [44]): 7.69%
- Activity (HeLa [45]): Active
- Activity [46]: inactive
- Activity (HeLa [47]): 4.08%
